In general, ED50 refers to the dose at which the effect has come halfway, by size or by number of responders. The low end stands for an effect at a small dose, the high end for a need for a large dose.

The values below come from ChEMBL document CHEMBL1126050, “Edward E. Smissman-Bristol-Myers Squibb Award Address. The role of concepts in structure-activity relationship studies of opioid ligands” (1992).

This assay relates to Mus musculus. In words: Compound was evaluated for antinociceptive potency by subcutaneous administration in mice using the hotplate assay. Particulars: sc. It is filed as functional.
For `Oc1cccc([C@@]23CCC[C@@H](C2)N(CCc2ccccc2)CC3)c1`, the 50% effect level (ED50) was put at a dose of 3.99 mg/kg.

Turning to `CC1[C@@H]2Cc3ccc(O)cc3[C@@]1(C)CCN2CCc1ccccc1` (some centres undefined), the ED50 was determined as 0.1 mg/kg.

Regarding `C[C@H]1C2Cc3ccc(O)cc3[C@]1(C)CCN2C`, the 50% effect level (ED50) was put at a dose of 2.6 mg/kg.

With `CN1CC[C@]2(c3cccc(O)c3)CCC[C@H]1C2`, the median effective dose (ED50) was determined as 2 mg/kg.
